Test results reported in US9045468B2, “2,5-methano- and 2,5-ethano-tetrahydrobenzazepine derivatives and use thereof to block reuptake of norepinephrine, dopamine, and serotonin” (Albany Molecular Research, Inc., priority 2010, dated 2015).

Tests used:
DAT = assay: Ex vivo transporter occupancy assay, DAT ([125I]RTI-55, brain tissue); type: in vivo; details: dosed orally, time until sacrifice 3 h
From the text: (§1) The general procedure for brain tissue collection and transporter occupancy assessment is briefly described as follows. Mice were sacrificed by asphyxiation in CO2, rats by decapitation and dogs by IV injection of euthanasia solution. For mice and rats, after the brains were removed from the skull, the forebrain tissue (removal of the brainstem and cerebellum) was used for SERT, NET, and DAT occupancy assessment. In dogs, the striatum was dissected for DAT occupancy and the remaining forebrain tissue (without the striatum, brainstem, and cerebellum) was used for SERT and NET occupancy assessment. The brain tissues were frozen in chilled isopentane and stored at −80° C. until homogenization.
(§2) The brain tissues were thawed and then homogenized using a polytron homogenizer (Kinematica). Sample aliquots were frozen immediately and stored at −80° C. Protein content was measured for each sample using a Coomassie protein assay kit (Pierce).
(§3) On the day of ex vivo binding for occupancy assessment, frozen sample aliquots were thawed and needle homogenized, and 100 μg of the tissue was incubated for SERT, NET, and DAT binding under assay conditions summarized in Table 1. […] The filters were washed twice with ice-cold incubation buffer, punched into a clear plate prior to the addition of 200 ul scintillation fluid per well. Radioligand was measured using a Wallac Microbeta liquid scintillation counter.
(§4) The specific binding was calculated by subtracting the value of the non-specific binding from that of the total binding in each sample. The percent occupancy was calculated as (1−specific binding in drug treated/specific binding in vehicle treated)×100%. […] Nonlinear regression was performed using GraphPad Prism version 3.00 (GraphPad Software, San Diego, Calif.).

hSERT = hSERT (Homo sapiens (Human), UniProt P31645); assay: SERT radioligand binding assay ([125I]RTI-55, HEK-293 membranes); details: recombinant HEK-293 membranes, [125I]RTI-55; read-out: Binding Affinity (IC50, nM) SERT
hNET = hNET (Homo sapiens (Human), UniProt P23975); assay: NET radioligand binding assay ([3H]nisoxetine, HEK-293 membranes); details: recombinant HEK-293 membranes, [3H]nisoxetine; read-out: Binding Affinity (IC50, nM) NET
hDAT = hDAT (Homo sapiens (Human), UniProt Q01959); assay: DAT radioligand binding assay ([125I]RTI-55, HEK-293 membranes); details: recombinant HEK-293 membranes, [125I]RTI-55; read-out: Binding Affinity (IC50, nM) DAT
SERT = assay: Ex vivo transporter occupancy assay, SERT ([3H]citalopram, brain tissue); type: in vivo; details: dosed orally, time until sacrifice 3 h
From the text: as §1, §2
On the day of ex vivo binding for occupancy assessment, frozen sample aliquots were thawed and needle homogenized, and 100 μg of the tissue was incubated for SERT, NET, and DAT binding under assay conditions summarized in Table 1. After incubation, the reactions were terminated by the addition of ice-cold assay buffer and rapid filtration through a Brandel Cell Harvester using FPXLR-196 filters. The filters were washed twice with ice-cold incubation buffer, punched into a clear plate prior to the addition of 200 ul scintillation fluid per well. Radioligand was measured using a Wallac Microbeta liquid scintillation counter.
as §4

NET = assay: Ex vivo transporter occupancy assay, NET ([3H]nisoxetine, brain tissue); type: in vivo; details: dosed orally, time until sacrifice 3 h
From the text: as §1, §2, §3, §4

hDAT, sequence (Q01959 whole entry): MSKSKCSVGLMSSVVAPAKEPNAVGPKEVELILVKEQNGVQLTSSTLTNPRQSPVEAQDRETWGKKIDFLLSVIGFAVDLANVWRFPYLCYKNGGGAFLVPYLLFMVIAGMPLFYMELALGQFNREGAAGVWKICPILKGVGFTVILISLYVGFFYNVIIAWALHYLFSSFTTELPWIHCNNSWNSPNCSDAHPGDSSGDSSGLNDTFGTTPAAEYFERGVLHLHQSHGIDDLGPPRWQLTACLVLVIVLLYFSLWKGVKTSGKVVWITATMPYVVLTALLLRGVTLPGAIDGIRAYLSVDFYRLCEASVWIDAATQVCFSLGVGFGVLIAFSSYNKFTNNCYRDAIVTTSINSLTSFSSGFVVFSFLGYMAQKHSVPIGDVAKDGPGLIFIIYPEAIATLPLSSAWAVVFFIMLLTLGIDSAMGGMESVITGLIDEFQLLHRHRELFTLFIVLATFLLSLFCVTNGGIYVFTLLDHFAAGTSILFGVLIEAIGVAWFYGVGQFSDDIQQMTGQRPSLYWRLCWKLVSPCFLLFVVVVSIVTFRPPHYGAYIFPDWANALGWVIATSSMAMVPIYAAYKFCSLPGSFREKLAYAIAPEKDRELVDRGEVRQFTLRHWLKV
hSERT, sequence (P31645 whole entry): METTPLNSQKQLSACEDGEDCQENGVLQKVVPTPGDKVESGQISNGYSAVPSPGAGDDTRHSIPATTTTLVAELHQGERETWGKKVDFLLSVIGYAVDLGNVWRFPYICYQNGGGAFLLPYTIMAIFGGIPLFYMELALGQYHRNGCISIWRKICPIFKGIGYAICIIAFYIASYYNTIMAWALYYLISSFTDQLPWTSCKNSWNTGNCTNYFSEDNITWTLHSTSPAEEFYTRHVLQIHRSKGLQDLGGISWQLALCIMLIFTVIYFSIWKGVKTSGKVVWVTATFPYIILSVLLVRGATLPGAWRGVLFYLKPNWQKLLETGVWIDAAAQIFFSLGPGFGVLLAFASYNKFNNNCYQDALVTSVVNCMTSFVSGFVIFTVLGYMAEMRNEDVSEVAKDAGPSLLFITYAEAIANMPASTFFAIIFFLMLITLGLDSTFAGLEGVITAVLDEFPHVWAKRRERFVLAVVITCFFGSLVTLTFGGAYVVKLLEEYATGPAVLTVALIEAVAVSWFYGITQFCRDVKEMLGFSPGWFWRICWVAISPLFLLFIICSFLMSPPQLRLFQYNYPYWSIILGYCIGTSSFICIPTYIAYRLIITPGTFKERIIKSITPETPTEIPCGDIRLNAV
hNET, sequence (P23975 whole entry): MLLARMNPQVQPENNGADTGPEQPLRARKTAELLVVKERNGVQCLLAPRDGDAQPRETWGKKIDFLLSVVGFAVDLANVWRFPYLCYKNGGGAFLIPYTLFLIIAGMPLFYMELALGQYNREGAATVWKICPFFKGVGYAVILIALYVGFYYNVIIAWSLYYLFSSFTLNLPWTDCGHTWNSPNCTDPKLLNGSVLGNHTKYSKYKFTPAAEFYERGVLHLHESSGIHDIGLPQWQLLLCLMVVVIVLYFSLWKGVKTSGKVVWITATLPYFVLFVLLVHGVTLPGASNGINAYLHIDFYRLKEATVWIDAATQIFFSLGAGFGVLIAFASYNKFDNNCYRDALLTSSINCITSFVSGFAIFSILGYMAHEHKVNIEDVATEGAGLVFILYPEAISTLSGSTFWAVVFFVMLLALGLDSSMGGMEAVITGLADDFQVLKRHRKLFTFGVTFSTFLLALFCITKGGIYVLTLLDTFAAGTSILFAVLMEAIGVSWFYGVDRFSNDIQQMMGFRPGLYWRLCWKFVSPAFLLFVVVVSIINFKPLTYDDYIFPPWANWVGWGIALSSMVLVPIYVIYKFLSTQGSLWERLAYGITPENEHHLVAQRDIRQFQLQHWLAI

SMILES	% Occupancy DAT (DAT; 3 mg/kg) [%]	IC50 (hSERT) [nM]	IC50 (hNET) [nM]	IC50 (hDAT) [nM]	% Occupancy SERT (SERT; 3 mg/kg) [%]	% Occupancy NET (NET; 3 mg/kg) [%]	% Occupancy DAT (DAT; 1 mg/kg) [%]	% Occupancy SERT (SERT; 1 mg/kg) [%]	% Occupancy NET (NET; 1 mg/kg) [%]
FC(F)Oc1ccc(-c2ccc3c(c2)CN2CCC3(c3ccc(Cl)cc3)C2)nn1 (single isomer, unassigned) [6(−), 5-(4-chlorophenyl)-8(6-(difluoromethoxy)pyridazin-3-yl)-2,5-methano-2,3,4,5-tetrahydro-1H-benzo[c]azepine]	12	5.9	275	87.2	59	0			
Oc1ccc(-c2ccc3c(c2)CN2CCC3(c3ccc(Cl)cc3)C2)nn1 (single isomer, unassigned) [7(−), 6-(5-(4-chlorophenyl)-2,5-methano-2,3,4,5-tetrahydro-1H-benzo[c]azepin-8-yl)pyridazin-3-ol]		6.4	103	16.6			1	70	46
FC(F)Oc1ccc(-c2ccc3c(c2)CN2CCC3(c3ccc(Cl)cc3)CC2)nn1 [Example 14, 5-(4-chlorophenyl)-8-(6-(difluoromethoxy)pyridazin-3-yl)-2,5-ethano-2,3,4,5-tetrahydro-1H-2-benzo[c]azepine]	12	1.1	264	57.3	79	0			
Clc1ccc(C23CCN(CC2)Cc2cc(-c4cnccn4)ccc23)cc1 [Example 17, 5-(4-chlorophenyl)-2,5-ethano-8-(pyrazin-2-yl)-2,3,4,5-tetrahydro-1H-benzo[c]azepine]		5.3	2300	83.5			0	77	12
Nc1cnc(-c2ccc3c(c2)CN2CCC3(c3ccc(Cl)cc3)CC2)cn1 [Example 18, 5-(5-(4-chlorophenyl)-2,5-ethano-2,3,4,5-tetrahydro-1H-benzo[c]azepin-8-yl)pyrazin-2-amine]	15	3.5	925	47.6	89	6			
O=C1NC2C=CC(c3ccc4c(c3)CN3CCC4(c4ccc(Cl)cc4)CC3)=CC2O1 (centres unmarked) [Example 22, 6-(5-(4-chlorophenyl)-2,5-ethano-2,3,4,5-tetrahydro-1H-benzo[c]azepin-8-yl)-3,3a-dihydrobenzo[d]oxazol-2(7aH)-one]	5	3.4	806	58.6	60	0			
CS(=O)(=O)c1ccc(-c2ccc3c(c2)CN2CCC3(c3ccc(Cl)cc3)CC2)cc1 [Example 26, 5-(4-chlorophenyl)-2,5-ethano-8-(4-(methylsulfonyl)phenyl)-2,3,4,5-tetrahydro-1H-benzo[c]azepine]		7.2	432	63			3	14	0
FC(F)(F)c1ccc(Oc2ccc3c(c2)CN2CCC3(c3ccc(Cl)cc3)CC2)nn1 [Example 32, 5-(4-chlorophenyl)-2,5-ethano-8-(6-(trifluoromethyl)pyridazin-3-yloxy)-2,3,4,5-tetrahydro-1H-benzo[c]azepine]	42	4.3	124	36.5	74	0			
FC(F)Oc1ccc(-c2ccc3c(c2)CN2CCC3(c3ccc(Cl)c(Cl)c3)CC2)nn1 [Example 39, 5-(3,4-dichlorophenyl)-8-(6-(difluoromethoxy)pyridazin-3-yl)-2,5-ethano-2,3,4,5-tetrahydro-1H-benzo[c]azepine]		3.8	53.5	26.1	59	41			
Nc1cnc(-c2ccc3c(c2)CN2CCC3(c3ccc(Cl)c(Cl)c3)CC2)cn1 [Example 42, 5-(5-(3,4-dichlorophenyl)-2,5-ethano-2,3,4,5-tetrahydro-1H-benzo[c]azepin-8-yl)pyrazin-2-amine]	54	5.9	155	9.2	82	39			
FC(F)(F)c1ccc(Oc2ccc3c(c2)CN2CCC3(c3ccc(Cl)c(Cl)c3)CC2)nn1 [Example 45, 5-(3,4-dichlorophenyl)-2,5-ethano-8-(6-(trifluoromethyl)pyridazin-3-yloxy)-2,3,4,5-tetrahydro-1H-benzo[c]azepine]		4.8	35.1	0.7			17	46	0
Fc1ccc(C23CCN(CC2)Cc2cc(Oc4ccc(C(F)(F)F)nn4)ccc23)cc1Cl [Example 47, 5-(3-chloro-4-fluorophenyl)-2,5-ethano-8-(6-(trifluoromethyl)pyridazin-3-yloxy)-2,3,4,5-tetrahydro-1H-benzo[c]azepine]		6.4	112	9			17	34	0
Fc1cc(C23CCN(CC2)Cc2cc(Oc4ccc(C(F)(F)F)nn4)ccc23)ccc1Cl [Example 48, 5-(4-chloro-3-fluorophenyl)-2,5-ethano-8-(6-(trifluoromethyl)pyridazin-3-yloxy)-2,3,4,5-tetrahydro-1H-benzo[c]azepine]		7.2	134	10.1			12	21	0
